{
  "source": "patent US8906929B2",
  "about": "“Inhibitors of human immunodeficiency virus replication” (priority 2012, dated 2014)",
  "data": [
    {"tested_on": "recombinant NL-Rluc virus", "experiment": "Inhibition of HIV replication (NL-RLuc virus in MT-2 cells, luciferase readout)", "assay_type": "cell-based", "conditions": "Human immunodeficiency virus 1, MT2, 120 h, 5 days of incubation, 10% FBS", "units": {"EC50": "nM"}, "values": [
      {"molecule": "Cc1nc2cc3nn2c(c1[C@H](OC(C)(C)C)C(=O)O)N1CCC(C)(/C=C/CCCOc2ccc(Cl)cc2-c2cccc-3c2)CC1", "note": "[Example 45, (2S)-2-(tert-Butoxy)-2-[(25E)-17-chloro-4,27-dimethyl-21-oxa-1,5,7,8-tetraazahexacyclo[25.2.2.1^6,^9.1^10,^14.0^2,^7.0^15,^20]tritriaconta-2,4,6(33),8,10(32),11,13,15(20),16,18,25-undecaen-3-yl]acetic acid]", "EC50": 33},
      {"molecule": "Cc1nc2cc3nn2c(c1[C@H](OC(C)(C)C)C(=O)O)N1CCC(C)(CC1)OCCCCCc1ncccc1-c1cccc-3c1", "note": "[Example 46, (2S)-2-(tert-Butoxy)-2-{4,27-dimethyl-26-oxa-1,5,7,8,19-pentaazahexacyclo[25.2.2.1^6,^9.1^10,^14.0^2,^7.0^15,^20]tritriaconta-2,4,6(33),8,10(32),11,13,15(20),16,18-decaen-3-yl}acetic acid]", "EC50": 10},
      {"molecule": "Cc1nc2cc3nn2c(c1[C@H](OC(C)(C)C)C(=O)O)N1CCC(C)(CC1)OC/C=C\\COc1cc(F)ccc1-c1cccc-3c1", "note": "[Example 47, (2S)-2-(tert-Butoxy)-2-[(23Z)-18-fluoro-4,2,7-dimethyl-21,26-dioxa-1,5,7,8-tetraazahexacyclo[25.2.2.1^6,^9.1^10,^14.0^2,^7.0^15,^20]tritriaconta-2,4,6(33),8,10(32),11,13,15(20),16,18,23-undecaen-3-yl]acetic acid]", "EC50": 14},
      {"molecule": "Cc1nc2cc3nn2c(c1[C@H](OC(C)(C)C)C(=O)O)N1CCC(C)(CC1)OC/C=C/COc1cc(F)ccc1-c1cccc-3c1", "note": "[Example 48, (2S)-2-(tert-Butoxy)-2-[(23E)-18-fluoro-4,2,7-dimethyl-21,26-dioxa-1,5,7,8-tetraazahexacyclo[25.2.2.1^6,^9.1^10,^14.0^2,^7.0^15,^20]tritriaconta-2,4,6(33),8,10(32),11,13,15(20),16,18,23-undecaen-3-yl]acetic acid]", "EC50": 11},
      {"molecule": "Cc1nc2cc3nn2c(c1[C@H](OC(C)(C)C)C(=O)O)N1CCC(C)(CC1)OCCCCOc1cc(F)ccc1-c1cccc-3c1", "note": "[Example 49, (2S)-2-(tert-Butoxy)-2-{18-fluoro-4,27-dimethyl-21,26-dioxa-1,5,7,8-tetraazahexacyclo[25.2.2.1^6,^9.1^10,^14.0^2,^7.0^15,^20]tritriaconta-2,4,6(33),8,10(32),11,13,15(20),16,18-decaen-3-yl}acetic acid]", "EC50": 9},
      {"molecule": "Cc1nc2cc3nn2c(c1[C@H](OC(C)(C)C)C(=O)O)N1CCC(C)(CC/C=C/CCc2ccncc2-c2cccc-3c2)CC1", "note": "[Example 50, (2S)-2-(tert-Butoxy)-2-[(23E)-4,27-dimethyl-1,5,7,8,17-pentaazahexacyclo[25.2.2.1^6,^9.1^10,^14.0^2,^7.0^15,^20]tritriaconta-2,4,6(33),8,10(32),11,13,15(20),16,18,23-undecaen-3-yl]acetic acid]", "EC50": 6},
      {"molecule": "Cc1nc2cc3nn2c(c1[C@H](OC(C)(C)C)C(=O)O)N1CCC(C)(CC/C=C\\CCc2ccncc2-c2cccc-3c2)CC1", "note": "[Example 51, (2S)-2-(tert-Butoxy)-2-[(23Z)-4,27-dimethyl-1,5,7,8,17-pentaazahexacyclo[25.2.2.1^6,^9.1^10,^14.0^2,^7.0^15,^20]tritriaconta-2,4,6(33),8,10(32),11,13,15(20),16,18,23-undecaen-3-yl]acetic acid]", "EC50": 6},
      {"molecule": "Cc1nc2cc3nn2c(c1[C@H](OC(C)(C)C)C(=O)O)N1CCC(C)(CCCCCCc2ccncc2-c2cccc-3c2)CC1", "note": "[Example 52, (2S)-2-(tert-Butoxy)-2-{4,27-dimethyl-1,5,7,8,17-pentaazahexacyclo[25.2.2.1^6,^9.1^10,^14.0^2,^7.0^15,^20]tritriaconta-2,4,6(33),8,10(32),11,13,15(20),16,18-decaen-3-yl}acetic acid]", "EC50": 5},
      {"molecule": "Cc1ccc2c(c1)-c1cccc(c1)-c1cc3nc(C)c([C@H](OC(C)(C)C)C(=O)O)c(n3n1)N1CCC(C)(CC1)OC/C=C/C[C@H](C)O2", "note": "[Example 53, (2S)-2-(tert-Butoxy)-2-[(22S,^24E)-4,17,22,28-tetramethyl-21,27-dioxa-1,5,7,8-tetraazahexacyclo[26.2.2.1^6,^9.1^10,^14.0^2,^7.0^15,^20]tetratriaconta-2,4,6(34),8,10(33),11,13,15(20),16,18,24-undecaen-3-yl]acetic acid]", "EC50": 10},
      {"molecule": "Cc1ccc2c(c1)-c1cccc(c1)-c1cc3nc(C)c([C@H](OC(C)(C)C)C(=O)O)c(n3n1)N1CCC(C)(CC1)OC/C=C\\C[C@H](C)O2", "note": "[Example 54, (2S)-2-(tert-Butoxy)-2-[(22S,24Z)-4,17,22,28-tetramethyl-21,27-dioxa-1,5,7,8-tetraazahexacyclo[26.2.2.1^6,^9.1^10,^14.0^2,^7.0^15,^20]tetratriaconta-2,4,6(34),8,10(33),11,13,15(20),16,18,24-undecaen-3-yl]acetic acid]", "EC50": 130},
      {"molecule": "Cc1ccc2c(c1)-c1cccc(c1)-c1cc3nc(C)c([C@H](OC(C)(C)C)C(=O)O)c(n3n1)N1CCC(C)(CC1)OCCCC[C@H](C)O2", "note": "[Example 55, (2S)-2-(tert-Butoxy)-2-[(22S)-4,17,22,28-tetramethyl-21,27-dioxa-1,5,7,8-tetraazahexacyclo[26.2.2.1^6,^9.1^10,^14.0^2,^7.0^15,^20]tetratriaconta-2,4,6(34), 8, 10(33), 11, 13, 15 (20),16,18-decaen-3-yl]acetic acid]", "EC50": 14},
      {"molecule": "Cc1nc2cc3nn2c(c1[C@H](OC(C)(C)C)C(=O)O)N1CCC(C)(CC1)OCC=C[C@@H](C)Oc1ccncc1-c1cccc-3c1", "note": "[Example 56, (2S)-2-(tert-Butoxy)-2-[(22R)-4,22,27-trimethyl-21,26-dioxa-1,5,7,8,17-pentaazahexacyclo[25.2.2.1^6,^9.1^10,^14.0^2,^7.0^15,^20]tritriaconta-2,4,6(33),8,10(32), 11, 13, 15 (20),16,18,23-undecaen-3-yl]acetic acid]", "EC50": 351},
      {"molecule": "Cc1nc2cc3nn2c(c1[C@H](OC(C)(C)C)C(=O)O)N1CCC(C)(CC1)OCC=C[C@H](C)Oc1ccncc1-c1cccc-3c1", "note": "[Example 57, (2S)-2-(tert-Butoxy)-2-[(22S)-4,22,27-trimethyl-21,26-dioxa-1,5,7,8,17-pentaazahexacyclo[25.2.2.1^6,^9.1^10,^14.0^2,^7.0^15,^20]tritriaconta-2,4,6(33),8,10(32), 11, 13, 15(20),16,18,23-undecaen-3-yl]acetic acid]", "EC50": 300},
      {"molecule": "Cc1ccc2c(c1)-c1cccc(c1)-c1cc3nc(C)c([C@H](OC(C)(C)C)C(=O)O)c(n3n1)N1CCC(C)(CC1)OCC=C[C@@H](C)O2", "note": "[Example 58, (2S)-2-(tert-Butoxy)-2-[(22R)-4,17,22,2,7-tetramethyl-21,26-dioxa-1,5,7,8-tetraazahexacyclo[25.2.2.1^6,^9.1^10,^14.0^2,^7.0^15,^20]tritriaconta-2,4,6(33),8,10(32),11,13,15(20),16,18,23-undecaen-3-yl]acetic acid]", "EC50": 74},
      {"molecule": "Cc1ccc2c(c1)-c1cccc(c1)-c1cc3nc(C)c([C@H](OC(C)(C)C)C(=O)O)c(n3n1)N1CCC(C)(CC1)OCC=C[C@H](C)O2", "note": "[Example 59, (2S)-2-(tert-Butoxy)-2-[(22S)-4,17,22,27-tetramethyl-21,26-dioxa-1,5,7,8-tetraazahexacyclo[25.2.2.1^6,^9.1^10,^14.0^2,^7.0^15,^20]tritriaconta-2,4,6(33),8,10(32),11,13,15(20),16,18,23-undecaen-3-yl]acetic acid]", "EC50": 8}
    ]}
  ]
}
